Usually inhibition stands for the percentage by which the read-out fell short of the control. The IC50 is the midpoint of a concentration-inhibition curve.

Assay [1] has as its target T1, TASK-3 WT channel (Cavia porcellus, UniProt Q9JL58). The settings on record: +80 mV, HEK-293 cells.
Assay [2] concerns the target Kv2.1 channel (Rattus norvegicus, UniProt P15387). The assay is described as follows: cell-based. The settings on record: HEK293, read-out: inhibition of Kv2.1 currents.
The target in assay [3] is T1, TASK-3 WT channel. Briefly: cell-based.
Assay [4] concerns the target TASK-3/2loop2/Y99A/Y205A (Cavia porcellus, UniProt Q9JL58, Y205A, form not given). To be noted: HEK-293 cells; similar to TASK-3 WT.
Assay [5] deals with TASK-3/2loop2/Y99A (Cavia porcellus, UniProt Q9JL58). To be noted: HEK-293 cells.
Assay [6] addresses TASK-3/2loop2/Y205A (Cavia porcellus, UniProt Q9JL58, Y205A, form not given). To be noted: HEK-293 cells.
In assay [7] the target is TASK-3/2loop2 (cap-less TASK-3 channel) (Cavia porcellus, UniProt Q9JL58). The settings on record: symmetrical K+ conditions, HEK-293 cells.
Chain of TASK-3/2loop2 (cap-less TASK-3 channel) (Q9JL58 with tags, fused parts or gaps): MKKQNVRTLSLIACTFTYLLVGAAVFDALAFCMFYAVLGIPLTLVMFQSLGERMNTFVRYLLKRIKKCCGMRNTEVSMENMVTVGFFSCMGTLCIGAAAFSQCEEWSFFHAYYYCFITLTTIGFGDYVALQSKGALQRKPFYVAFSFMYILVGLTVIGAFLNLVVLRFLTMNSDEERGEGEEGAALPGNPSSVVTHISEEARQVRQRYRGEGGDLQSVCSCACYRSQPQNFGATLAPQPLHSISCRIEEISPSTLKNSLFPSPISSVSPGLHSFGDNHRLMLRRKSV

Chain of TASK-3/2loop2/Y205A (Q9JL58 with tags, fused parts or gaps Y205A, form open): as the sequence (Q9JL58 with tags, fused parts or gaps) above, with Y127A counted along it
Chain of TASK-3/2loop2/Y99A (Q9JL58 with tags, fused parts or gaps): as the sequence (Q9JL58 with tags, fused parts or gaps) above
T1 sequence (Q9JL58 whole entry): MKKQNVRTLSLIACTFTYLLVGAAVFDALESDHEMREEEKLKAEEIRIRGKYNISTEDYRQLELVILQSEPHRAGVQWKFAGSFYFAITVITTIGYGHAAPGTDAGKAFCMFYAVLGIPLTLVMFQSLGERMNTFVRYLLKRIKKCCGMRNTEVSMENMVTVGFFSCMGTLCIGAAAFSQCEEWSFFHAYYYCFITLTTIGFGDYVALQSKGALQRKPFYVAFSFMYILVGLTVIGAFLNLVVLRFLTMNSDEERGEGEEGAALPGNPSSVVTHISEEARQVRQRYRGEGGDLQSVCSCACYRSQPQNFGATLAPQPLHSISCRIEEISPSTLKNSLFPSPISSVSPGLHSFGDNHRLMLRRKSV
Chain of TASK-3/2loop2/Y99A/Y205A (Q9JL58 with tags, fused parts or gaps Y205A, form open): as the sequence (Q9JL58 with tags, fused parts or gaps) above, with Y127A counted along it
Chain of Kv2.1 channel (P15387 whole entry): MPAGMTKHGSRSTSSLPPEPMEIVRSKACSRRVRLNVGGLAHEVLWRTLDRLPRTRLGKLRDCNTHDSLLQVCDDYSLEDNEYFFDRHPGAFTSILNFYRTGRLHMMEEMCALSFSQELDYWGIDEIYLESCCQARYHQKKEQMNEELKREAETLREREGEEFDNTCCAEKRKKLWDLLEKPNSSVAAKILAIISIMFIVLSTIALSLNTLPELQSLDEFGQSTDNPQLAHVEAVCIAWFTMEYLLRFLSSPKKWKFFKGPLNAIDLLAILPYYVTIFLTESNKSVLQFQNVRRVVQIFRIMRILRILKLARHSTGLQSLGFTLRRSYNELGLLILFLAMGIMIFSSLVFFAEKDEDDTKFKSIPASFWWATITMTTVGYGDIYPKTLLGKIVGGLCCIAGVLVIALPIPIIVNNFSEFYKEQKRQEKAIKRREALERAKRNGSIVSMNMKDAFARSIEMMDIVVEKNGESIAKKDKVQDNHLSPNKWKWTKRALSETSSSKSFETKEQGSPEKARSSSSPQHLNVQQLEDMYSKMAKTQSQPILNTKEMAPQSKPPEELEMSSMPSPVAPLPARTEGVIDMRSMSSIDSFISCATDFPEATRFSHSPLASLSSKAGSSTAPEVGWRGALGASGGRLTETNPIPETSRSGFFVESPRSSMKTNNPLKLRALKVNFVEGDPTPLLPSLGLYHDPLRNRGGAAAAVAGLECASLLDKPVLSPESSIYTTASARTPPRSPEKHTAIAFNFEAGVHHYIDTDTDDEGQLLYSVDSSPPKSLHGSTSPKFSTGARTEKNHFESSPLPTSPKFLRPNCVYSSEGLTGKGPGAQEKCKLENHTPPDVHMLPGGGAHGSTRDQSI

Take `CC[N+](CC)(CC)CC` [TEA, tetraethylammonium]: the “inhibition at saturating TEA concentrations” value in assay [1] is 30%. For the same compound, the inhibition at 100000 µM in assay [2] is roughly 85%. The IC50 in assay [3] was determined as 12.5 ± 3.4 mM; in assay [5] (n = 4), 17.3 ± 1.8 mM; in assay [6] (n = 3), 63.9 ± 5.4 mM; in assay [7] (n = 4), 11.8 ± 0.4 mM. Besides, in assay [4], the “sensitivity to TEA blockade” value was “essentially insensitive”. Also, the maximal inhibition came out at 46% in assay [5] and 59% in assay [6]. Further, the maximum inhibition in assay [7] amounted to 90%.

The record behind these values is article PMC6121469 (International Journal of Molecular Sciences, 2018).
